Measurements as given in patent publication US20220193081A1 (Ellamed IP & Services PTE. LTD., priority 2019, published 2022).

Test: HPLC assay on storage of sildenafil citrate in buffered 60% aqueous ethanol (Example 4)
Assay type: physicochemical
Conditions: pH 5.5, NaOH
Method: Before being placed on storage, and at time points 7 and 42 days, the concentration of sildenafil in the mixtures were assayed using HPLC. The samples were then stored at either −20° C., 2-8° C. or 25° C. for periods of up to 42 days. Periodically, the samples were visually inspected for evidence of crystallization.

For `CCCc1nn(C)c2c(=O)nc(-c3cc(S(=O)(=O)N4CCN(C)CC4)ccc3OCC)[nH]c12.O=C(O)CC(O)(CC(=O)O)C(=O)O` [sildenafil citrate, 1-[[3-(4,7-Dihydro-1-methyl-7-oxo-3-propyl-1H-pyrazolo[4,3-d]pyrimidin-5-yl)-4-ethoxyphenyl]sulfonyl]-4-methylpiperazine citrate salt], the “concentration of sildenafil by HPLC” value (18 mg/ml, with sucralose, 2-8 ° C., Day 7) was 18550 µg/mL, the “concentration of sildenafil by HPLC” value (18 mg/ml, with sucralose, 2-8 ° C., Day 42) was 15240 µg/mL and the “concentration of sildenafil by HPLC” value (18 mg/ml, with sucralose, 25 ° C., Day 7) was 18000 µg/mL. The “concentration of sildenafil by HPLC” value (18 mg/ml, with sucralose, 25 ° C., Day 42) was 17940 µg/mL, the “concentration of sildenafil by HPLC” value (18 mg/ml, with sucralose, Day 0) was 17560 µg/mL and the “concentration of sildenafil by HPLC” value (18 mg/ml, without sucralose, 2-8 ° C., Day 7) was 18330 µg/mL. The “concentration of sildenafil by HPLC” value (18 mg/ml, without sucralose, 2-8 ° C., Day 42) was 15230 µg/mL, the “concentration of sildenafil by HPLC” value (18 mg/ml, without sucralose, 25 ° C., Day 7) was 18080 µg/mL and the “concentration of sildenafil by HPLC” value (18 mg/ml, without sucralose, 25 ° C., Day 42) was 17190 µg/mL. The “concentration of sildenafil by HPLC” value (18 mg/ml, without sucralose, Day 0) was 17420 µg/mL, the “concentration of sildenafil by HPLC” value (21 mg/ml, without sucralose, 2-8 ° C., Day 7) was 22110 µg/mL and the “concentration of sildenafil by HPLC” value (21 mg/ml, without sucralose, 2-8 ° C., Day 42) was 13780 µg/mL. For the same molecule, the “concentration of sildenafil by HPLC” value (21 mg/ml, without sucralose, 25 ° C., Day 7) was 20400 µg/mL, the “concentration of sildenafil by HPLC” value (21 mg/ml, without sucralose, 25 ° C., Day 42) was 19610 µg/mL and the “concentration of sildenafil by HPLC” value (21 mg/ml, without sucralose, Day 0) was 20520 µg/mL.
